# Data taken from ChEMBL document CHEMBL5154804, “Species-Selective Targeting of Fungal Hsp90: Design, Synthesis, and Evaluation of Novel 4,5-Diarylisoxazole Derivatives for the Combination Treatment of Azole-Resistant Candidiasis” (J Med Chem, 2022).
# Columns and labels:
# Assay type in all cases: functional
# Candida albicans [1] = assay: Synergistic antifungal activity against fluconazole-resistant Candida albicans 901 assessed as inhibition of fungal growth in presence of fluconazole by checker board microdilution assay
# Candida albicans [2] = assay: Synergistic antifungal activity against fluconazole-resistant Candida albicans 103 assessed as inhibition of fungal growth in presence of fluconazole by checker board microdilution assay
# Candida albicans [3] = assay: Synergistic antifungal activity against fluconazole-resistant Candida albicans 904 assessed as inhibition of fungal growth in presence of fluconazole by checker board microdilution assay; also: test concentration or dose not given here
# Candida albicans [4] = assay: Synergistic antifungal activity against fluconazole-resistant Candida albicans 100 assessed as inhibition of fungal growth in presence of fluconazole by checker board microdilution assay
# Candida albicans [5] = assay: Synergistic antifungal activity against fluconazole-resistant Candida albicans 311 assessed as inhibition of fungal growth in presence of fluconazole by checker board microdilution assay; also: test concentration or dose not given here
# Candida albicans [6] = assay: Synergistic antifungal activity against fluconazole-resistant Candida albicans 632 assessed as inhibition of fungal growth in presence of fluconazole by checker board microdilution assay
SMILES,MIC80 (Candida albicans [1]) [µg/mL],MIC80 (Candida albicans [2]) [µg/mL],MIC80 (Candida albicans [3]) [µg/mL],MIC80 (Candida albicans [4]) [µg/mL],MIC80 (Candida albicans [5]) [µg/mL],MIC80 (Candida albicans [6]) [µg/mL]
CCNC(=O)c1noc(-c2cc(-c3ccc(OC)cc3)c(O)cc2O)c1-c1ccc(CN2CCOCC2)cc1,8,8,4,8,16,16
CCNC(=O)c1noc(-c2cc(-c3cccc(C)c3)c(O)cc2O)c1-c1ccc(CN2CCOCC2)cc1,0.5,1,0.25,1,0.5,0.25
Cc1ccc(-c2cc(-c3onc(C(=O)N4CCCCC4)c3-c3ccc(CN4CCOCC4)cc3)c(O)cc2O)cc1,> 64,> 64,> 64,> 64,> 64,> 64
CCNC(=O)c1noc(-c2cc(-c3ccccc3Cl)c(O)cc2O)c1-c1ccc(CN2CCOCC2)cc1,> 64,> 64,> 64,> 64,> 64,> 64
Cc1ccc(-c2cc(-c3onc(C(=O)NC4CCC4)c3-c3ccc(CN4CCCCC4)cc3)c(O)cc2O)cc1,4,4,2,2,2,1
CCNC(=O)c1noc(-c2cc(-c3ccc(OC(F)(F)F)cc3)c(O)cc2O)c1-c1ccc(CN2CCOCC2)cc1,> 64,> 64,> 64,> 64,> 64,> 64
Cc1ccc(-c2cc(-c3onc(C(=O)NC(C)C)c3-c3ccc(CN4CCCCC4)cc3)c(O)cc2O)cc1,4,4,2,8,8,2
CCNC(=O)c1noc(-c2cc(-c3ccc(C)cc3)c(O)cc2O)c1-c1ccc(CN2CCS(=O)(=O)CC2)cc1,64,> 64,32,> 64,16,> 64
Cc1ccc(-c2cc(-c3onc(C(=O)N(C)C)c3-c3ccc(CN4CCOCC4)cc3)c(O)cc2O)cc1,4,16,8,32,32,8
CCCNC(=O)c1noc(-c2cc(-c3ccc(C)cc3)c(O)cc2O)c1-c1ccc(CN2CCOCC2)cc1,4,32,4,16,64,32
CCNC(=O)c1noc(-c2cc(-c3ccc(-c4ccccc4)cc3)c(O)cc2O)c1-c1ccc(CN2CCOCC2)cc1,> 64,> 64,> 64,> 64,> 64,> 64
CCN(CC)C(=O)c1noc(-c2cc(-c3ccc(C)cc3)c(O)cc2O)c1-c1ccc(CN2CCCCC2)cc1,4,2,8,4,4,4
CCNC(=O)c1noc(-c2cc(-c3ccc(C)cc3)c(O)cc2O)c1-c1ccc(CN2CC(C)CC(C)C2)cc1 (stereo not drawn),0.5,16,1,4,2,2
Cc1ccc(-c2cc(-c3onc(C(=O)NC4CC4)c3-c3ccc(CN4CCOCC4)cc3)c(O)cc2O)cc1,8,16,4,4,> 64,32
CCNC(=O)c1noc(-c2cc(-c3cccc(C(F)(F)F)c3)c(O)cc2O)c1-c1ccc(CN2CCOCC2)cc1,> 64,> 64,> 64,> 64,> 64,> 64
CCNC(=O)c1noc(-c2cc(-c3ccc(C(C)C)cc3)c(O)cc2O)c1-c1ccc(CN2CCOCC2)cc1,> 64,> 64,> 64,> 64,> 64,> 64
CCNC(=O)c1noc(-c2cc(-c3ccc(C)cc3)c(O)cc2O)c1-c1ccc(CN2CCC(N3CCOCC3)CC2)cc1,> 64,> 64,> 64,> 64,> 64,> 64
CCNC(=O)c1noc(-c2cc(-c3ccccc3CC)c(O)cc2O)c1-c1ccc(CN2CCOCC2)cc1,> 64,> 64,> 64,> 64,> 64,> 64
Cc1ccc(-c2cc(-c3onc(C(=O)N(C)C)c3-c3ccc(CN4CCCCC4)cc3)c(O)cc2O)cc1,16,16,8,8,16,8

SMILES,MIC80 (Candida albicans [1]) [µg/mL],MIC80 (Candida albicans [2]) [µg/mL],MIC80 (Candida albicans [3]) [µg/mL],MIC80 (Candida albicans [4]) [µg/mL],MIC80 (Candida albicans [5]) [µg/mL],MIC80 (Candida albicans [6]) [µg/mL]
Cc1ccc(-c2cc(-c3onc(C(=O)N4CCCC4)c3-c3ccc(CN4CCOCC4)cc3)c(O)cc2O)cc1,> 64,> 64,> 64,> 64,> 64,> 64
Cc1ccc(-c2cc(-c3onc(C(=O)NC4COC4)c3-c3ccc(CN4CCCCC4)cc3)c(O)cc2O)cc1,32,> 64,> 64,> 64,> 64,> 64
CCNC(=O)c1noc(-c2cc(-c3cccc(OC(F)(F)F)c3)c(O)cc2O)c1-c1ccc(CN2CCOCC2)cc1,> 64,> 64,> 64,> 64,> 64,> 64
CCNC(=O)c1noc(-c2cc(-c3ccc(C)cc3)c(O)cc2O)c1-c1ccc(CN2CCN(C)CC2)cc1,64,> 64,> 64,> 64,> 64,> 64
Cc1ccc(-c2cc(-c3onc(C(=O)NC4CCC4)c3-c3ccc(CN4CCOCC4)cc3)c(O)cc2O)cc1,8,32,4,16,> 64,64
CCNC(=O)c1noc(-c2cc(-c3ccc(Cl)cc3)c(O)cc2O)c1-c1ccc(CN2CCOCC2)cc1,0.5,8,0.5,4,16,8
CCNC(=O)c1noc(-c2cc(-c3ccc(C(C)(C)C)cc3)c(O)cc2O)c1-c1ccc(CN2CCOCC2)cc1,> 64,> 64,> 64,> 64,> 64,> 64
CCNC(=O)c1noc(-c2cc(-c3ccc(C)cc3)c(O)cc2O)c1-c1ccc(CN2CCC(N(C)C)CC2)cc1,16,4,4,64,2,64
CCNC(=O)c1noc(-c2cc(-c3ccc(C)cc3)c(O)cc2O)c1-c1ccc(CNC2CCCC2)cc1,> 64,> 64,> 64,> 64,> 64,> 64
CCNC(=O)c1noc(-c2cc(-c3ccc(F)cc3)c(O)cc2O)c1-c1ccc(CN2CCOCC2)cc1,2,16,1,16,16,4
CCCNC(=O)c1noc(-c2cc(-c3ccc(C)cc3)c(O)cc2O)c1-c1ccc(CN2CCCCC2)cc1,4,4,2,8,8,4
CCN(CC)C(=O)c1noc(-c2cc(-c3ccc(C)cc3)c(O)cc2O)c1-c1ccc(CN2CCOCC2)cc1,8,16,8,8,8,8
Cc1ccc(-c2cc(-c3onc(C(=O)N4CCC4)c3-c3ccc(CN4CCCCC4)cc3)c(O)cc2O)cc1,16,> 64,> 64,> 64,16,> 64
CCNC(=O)c1noc(-c2cc(-c3cccc(C(C)(C)C)c3)c(O)cc2O)c1-c1ccc(CN2CCOCC2)cc1,> 64,> 64,> 64,> 64,> 64,> 64
Cc1ccc(-c2cc(-c3onc(C(=O)N4CCC4)c3-c3ccc(CN4CCOCC4)cc3)c(O)cc2O)cc1,16,> 64,16,8,> 64,> 64
CCNC(=O)c1noc(-c2cc(-c3ccc(C)cc3)c(O)cc2O)c1-c1ccc(CN2CCNC(=O)C2)cc1,> 64,> 64,> 64,> 64,> 64,> 64
Cc1ccc(-c2cc(-c3onc(C(=O)NC(C)C)c3-c3ccc(CN4CCOCC4)cc3)c(O)cc2O)cc1,8,64,4,16,64,8
CCNC(=O)c1noc(-c2cc(-c3ccc(C)cc3)c(O)cc2O)c1-c1ccc(CNC2CCN(C)CC2)cc1,16,16,64,64,64,8
CCNC(=O)c1noc(-c2cc(-c3cccc(F)c3)c(O)cc2O)c1-c1ccc(CN2CCOCC2)cc1,2,16,1,8,4,2
